Reference: PubChem BioAssay AID1918956 (Molecular Pharmacology Branch, DTP, NCI, 2023)

Test system: OVCAR-5 complex spheroids, viability
Test: Anticancer human tumor OVCAR-5 cell line growth inhibition;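 also: spheroids exposed to agents for seven days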;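 as to viability, T/C: 100% = DMSO vehicle control wells viability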
Conditions: for IC50: curve of first compound; for viability, T/C: stronger effect = lower value
Excerpt: Multicellular complex tumor spheroid response to LSD1 Inhibitor Iadademstat in combination with a variety of drugs and investigational agents in selected tumor cell lines
The current study was undertaken to assess response to LSD1 inhibitors in combination with standard-of-care drugs and investigational agents in solid tumor complex spheroid models as well as in the K-562 leukemia. Complex spheroids include a stromal component modeled by human endothelial cells (HUVEC) and fibroblasts modeled by human mesenchymal stem cells (MSCs). The concentration ranges selected for each drug and investigational agent were based upon clinically achievable concentrations if the clinical Cmax of the agent was known.
Compounds. The drugs and investigational agents used in this study are listed on Table 1. All of the agents used, including staurosporine (NSC755774) and gemcitabine (NSC613327), were obtained from the Developmental Therapeutics Program, NCI. FDA-approved anticancer drugs are available from the NCI at http://dtp.nci.nih.gov/branches/dscb/oncology_drugset_explanation.html. Drugs and investigational agents were >95% pure by proton nuclear magnetic resonance (NMR) and liquid chromatography/mass spectrometry (LC/MS). Stock solutions were prepared at 400x in DMSO, stored at -70 degrees C, and diluted in fresh medium prior to their use. The final concentration of DMSO in cell culture wells never exceeded 0.25% (v/v). The FDA-approved anticancer drug set is available from the Developmental Therapeutics Program at https://dtp.cancer.gov/organization/dscb/obtaining/available_plates.htm. All drugs and investigational agents were tested over a range starting from a high concentration at or near the clinical Cmax and decreasing in half-log increments. If the clinical Cmax for an agent had not been determined, the highest concentration tested was 10 microM.
Cell Lines. The patient-derived cancer cell (PDC) lines: 292921-168-R-J2-PDC, K24384-001-R-PDC, and 521955-158-R2-J5-PDC pancreatic carcinomas, 556581-035-R-J1 ovarian carcinoma, 324938-238-R-J1-PDC, 855422-203-R-J1-PDC and 883617-216-R-J1-PDC urothelial bladder carcinomas, 743489-274-T-PDC renal cell carcinoma, 138582-R-J1 Merkel cell tumor, K60290-347-R-J1 and K57222-313-R-J1-PDC glioblastomas, 653999-131-R-J2-PDC, LG0703-F948-PDC, and 349418-098-R-PDC non-small cell lung carcinomas, 885512-296-R-J2-PDC, 171881-019-R-J1-PDC breast carcinomas and 186277-243-T-J2-PDC and 233499-124-R-J2-PDC colon carcinomas were obtained from the NCI Patient-Derived Models Repository (PDMR, https://pdmr.cancer.gov). The established cell lines NCI/ADR-RES (RRID:CVCL_14520 and OVCAR-5 (RRID:CVCL_1628) ovarian carcinomas, 786-O (RRID:CVCL_1051) and A498 […] renal cell carcinoma, NCI-H211 (ATCC, cat. CRL-5824; RRID:CVCL_1529), NCI-H196 (ATCC, cat. CRL-5823, RRID:CVCL_1509), SW 1271 (ATCC, cat. CRL-2177, RRID:CVCL_1716) and NCI-H1876 (ATCC, cat. CRL-5902, RRID:CVCL_1503) small cell lung carcinomas, MDA-MB-231 (RRID:CVCL_0062) and MDA-MB-468 (RRID:CVCL_0419)breast carcinomas (10-12). Pooled donor human umbilical vein endothelial cells (HUVEC, Lonza, cat. CC-2519) and human mesenchymal stem cells (hMSC, Lonza, cat. PT-2501) were purchased from Lonza (Walkersville, MD).
Cell Culture. All cells were maintained in an incubator at 37 degrees C and 5% CO2 with 95% humidity. The PDC lines were cultured according to standard operating procedures established by the NCI PDMR (https://pdmr.cancer.gov). Briefly all PDCs were thawed and cultured in Matrigel-coated flasks prepared with a working solution of 1X Ham's F-12 nutrient mix, without supplementation (Invitrogen, Waltham, MA, cat. 11765054), 100 U/mL penicillin-streptomycin (Invitrogen, cat. 15140122), and 2.5% Matrigel (Corning Inc., Corning, NY, cat. 354248) for the first three passages. […]

Which results are given for O=C(c1cc(Cc2n[nH]c(=O)c3ccccc23)ccc1F)N1CCN(C(=O)C2CC2)CC1 + NC1CCC(NC2CC2c2ccccc2)CC1?
IC50 (second compound 0.1 µM): > 10 µM; IC50 (second compound 0.316 µM): > 10 µM; IC50 (second compound 1 µM): > 10 µM; IC50 (second compound 3.16 µM): > 10 µM; IC50 (second compound 10 µM): > 10 µM; viability, T/C (second compound 0.1 µM, first compound 0.0316 µM): 110%; viability, T/C (second compound 0.1 µM, first compound 0.1 µM): 116%; viability, T/C (second compound 0.1 µM, first compound 0.316 µM): 104%; viability, T/C (second compound 0.1 µM, first compound 1 µM): 102%; viability, T/C (second compound 0.1 µM, first compound 3.16 µM): 92.9%; viability, T/C (second compound 0.1 µM, first compound 10 µM): 90.5%; viability, T/C (second compound 0.316 µM, first compound 0.0316 µM): 101%; viability, T/C (second compound 0.316 µM, first compound 0.1 µM): 105%; viability, T/C (second compound 0.316 µM, first compound 0.316 µM): 105%; viability, T/C (second compound 0.316 µM, first compound 1 µM): 101%; viability, T/C (second compound 0.316 µM, first compound 3.16 µM): 98.2%; viability, T/C (second compound 0.316 µM, first compound 10 µM): 89.7%; viability, T/C (second compound 1 µM, first compound 0.0316 µM): 103%; viability, T/C (second compound 1 µM, first compound 0.1 µM): 103%; viability, T/C (second compound 1 µM, first compound 0.316 µM): 106%; viability, T/C (second compound 1 µM, first compound 1 µM): 88%; viability, T/C (second compound 1 µM, first compound 3.16 µM): 95.3%; viability, T/C (second compound 1 µM, first compound 10 µM): 82%; viability, T/C (second compound 3.16 µM, first compound 0.0316 µM): 95.6%; viability, T/C (second compound 3.16 µM, first compound 0.1 µM): 101%; viability, T/C (second compound 3.16 µM, first compound 0.316 µM): 93%; viability, T/C (second compound 3.16 µM, first compound 1 µM): 100%; viability, T/C (second compound 3.16 µM, first compound 3.16 µM): 88.5%; viability, T/C (second compound 3.16 µM, first compound 10 µM): 74.2%; viability, T/C (second compound 10 µM, first compound 0.0316 µM): 92.4%; viability, T/C (second compound 10 µM, first compound 0.1 µM): 97%; viability, T/C (second compound 10 µM, first compound 0.316 µM): 96.3%; viability, T/C (second compound 10 µM, first compound 1 µM): 83.2%; viability, T/C (second compound 10 µM, first compound 3.16 µM): 79%; viability, T/C (second compound 10 µM, first compound 10 µM): 61.1%
